Consider 1 compound from PMC12048343, “Discovery of a small molecule secreted clusterin enhancer that improves memory in Alzheimer’s disease mice” (npj Drug Discovery, 2025).

Series [1] has as its system SH-SY5Y cells. The series can be described thus: Cytotoxicity, MultiTox-Fluor (neurotoxicity). The class given is cell-based, human. Particulars: up to 50 µM.
Text: Cell viability and toxicity were simultaneously assessed using the MultiTox-Fluor Multiplex Cytotoxicity Assay (Cat# PRG9200, Fisher Scientific) according to the manufacturer’s protocol.
The test system of series [2] is 3xTg-AD murine model of AD. Kind of series: Chronic 6-week oral study in 3xTg-AD mice (hippocampus biomarkers, proteomics). The class given is in vivo, mouse. Particulars: oral 15 mg/kg BID, 6 weeks, vs vehicle. The protocol: Brain tissue was homogenized and diluted to a protein concentration of 50 ng/mL. The Mouse Clusterin ELISA Kit (Cat#ab199079, Abcam) was performed according to the manufacturer’s protocol.
Hippocampal tissue was sonicated in TPER buffer containing 1x protease and phosphatase inhibitors (Fisher catalog # 78429) on ice. Samples were centrifuged at 16000xg for 10 min at 4 degrees C. A BCA protein quantification assay was performed on each sample in duplicate. Aliquots of 40 uL were stored in the -80 freezer.
A sample of brain homogenate (8.8 mg/mL) was tested at 10 dilutions using the Tau AlphaLISA (Revvity Cat#AL271C) (32, 64, 128, 256, 512, 1024, 2048, 4096, 8192, 16384-fold) and, separately, the anti-tau phosphor AT8 and S396 (Fisher catalogs MN1020B and 44-752 G, respectively) antibodies (2, 4, 8, 16, 32, 64, 128, 256, 512, 1024-fold). AlphaLISA assays were by loading 2 µL of the anti-tau acceptor bead mixed with anti-tau or anti-ptau biotinylate antibodies in the 384-well plate, then 2 uL sample was loaded and incubated for 1 h at room temperature. AlphaScreen Streptavidin Donor beads (2 µL, Cat#6760002S, Perkin Elmer) were added, incubated for an additional 30 minutes in the dark, and the plate was read in an Envision plate reader.
Additional assays: The Aβ1-42 ELISA assay was performed on hippocampus brain homogenate according to the manufacturer’s protocol (Fisher KHB3441). Humanin in cell culture lysate was quantify by ELISA assay, according to the manufacturer’s protocol (MyBioSourc Cat# MBS7607247). SirT1 in cell culture lysate was quantify using AlphaLISA. Cell lysate (2 μL) was added to a 384-well proxy plate preloaded with 2 µL anti-SiRT1 antibody mixture (ABCAM catalog AB110304, biotinylated (10 nM) and ABCAM catalog AB104833, acceptor bead conjugated (50 µg/mL, Cat#6772001, Perkin Elmer)) was added and incubated at room temperature for 1 hour. AlphaScreen Streptavidin Donor beads (2 µL, Cat#6760002S, Perkin Elmer) were added, incubated for an additional 30 min in the dark, and the plate was read in an Envision plate reader.
All procedures were performed in accordance with protocols approved by the UCLA Institutional Animal Care and Use Committee (IACUC) and guidelines of the NIH. Mouse strains used were C57BL/6 J (Black 6, Jackson Laboratory; JAX stock #000564). All non-AD mice were 4 to 5 mo old at the time of the experiments. […]

In turn, `Cc1sc2c(c1C)C(c1ccc(Cl)cc1)=N[C@@H](CC(=O)OC1CC1)c1nnc(C)n1-2` [DDL-357] registered a Ctox in series [1] of at least 50 µM. Moreover, in series [2] (hippocampus), the “reduction of tau phosphorylation at Ser396 (p-tau/total tau)” value was “significant” and the “tau phosphorylation at Ser202/Thr205 (p-tau/total tau)” value is recorded as “lower, but not significantly so”. In addition, in series [2], the “Aβ1-42 levels in brain” value is “the differences were not significant” and the “sCLU levels in brain” value is on record as “the differences were not significant”.
